pEC50: −log10 of the molar value. Calls of active or inactive are those of the source. The rule behind the calls is not given here.
What was measured:
[1] = biological target: T1, Peroxisome proliferator-activated receptor gamma (Homo sapiens) (UniProt P37231); assay: Transactivation of recombinant human N-terminal GAL4-DBD fused PPARgamma LBD expressed in reporter cells at 30 uM measured after 24 hrs by luciferase reporter gene assay relative to control; format: cell-based
T1 sequence (whole entry): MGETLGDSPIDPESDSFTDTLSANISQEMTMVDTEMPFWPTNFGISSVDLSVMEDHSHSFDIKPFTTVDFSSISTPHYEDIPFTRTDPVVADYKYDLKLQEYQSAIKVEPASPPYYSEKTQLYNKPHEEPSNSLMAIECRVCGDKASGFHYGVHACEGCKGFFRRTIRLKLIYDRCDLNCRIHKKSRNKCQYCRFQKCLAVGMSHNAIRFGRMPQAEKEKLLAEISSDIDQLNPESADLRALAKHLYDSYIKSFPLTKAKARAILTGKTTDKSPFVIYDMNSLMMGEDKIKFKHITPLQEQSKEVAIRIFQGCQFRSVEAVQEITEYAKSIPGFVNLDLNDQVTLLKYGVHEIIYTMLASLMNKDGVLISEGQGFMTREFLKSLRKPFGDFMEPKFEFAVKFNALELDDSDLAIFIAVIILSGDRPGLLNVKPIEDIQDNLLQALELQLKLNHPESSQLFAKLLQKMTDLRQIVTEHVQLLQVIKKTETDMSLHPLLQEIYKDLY

[2] = biological target: T1, Peroxisome proliferator-activated receptor gamma (Homo sapiens); assay: Transactivation of recombinant human N-terminal GAL4-DBD fused PPARgamma LBD expressed in reporter cells at 30 uM measured after 24 hrs by luciferase reporter gene assay relative to rosiglitazone; format: cell-based
[3] = biological target: Free fatty acid receptor 1 (Homo sapiens, UniProt O14842); assay: Transactivation of recombinant human FFAR1 expressed in CHOK1 cells co-expressing Galpha15 assessed as increase in calcium flux measured after 20 secs for 100 secs by FLIPR assay; format: functional, cell-based; details: for pEC50: read-out: EC50
[4] = system: Mus musculus; assay: Antihyperglycemic activity in established high fat diet-induced obese mouse assessed as reduction in blood glucose level at 10 mg/kg, iv administered once daily for 14 days measured at 1 hr post dose on day 7 and 14 during compound dosing; format: functional, organism-based
[5] = system: Mus musculus; assay: Antihyperlipidemic activity in established high fat diet-induced obese mouse assessed as reduction in plasma triglyceride level at 10 mg/kg, iv administered once daily for 14 days measured at 1 hr post dose on day 7 and 14 during compound dosing by colorimetric method relative to rosiglitazone; format: functional
[6] = system: Mus musculus; assay: Antihyperglycemic activity in established high fat diet-induced obese mouse assessed as reduction in body weight at 10 mg/kg, iv administered once daily for 14 days; format: functional, organism-based
[7] = system: Mus musculus; assay: Antihyperglycemic activity in established high fat diet-induced obese mouse assessed as reduction in blood glucose level at 10 mg/kg, iv administered once daily for 14 days measured at 1 hr post dose on day 7 and 14 during compound dosing in presence of rosiglitazone; format: functional, organism-based
[8] = biological target: T2, Peroxisome proliferator-activated receptor gamma (Homo sapiens, UniProt P37231); assay: Transactivation of recombinant human N-terminal GAL4-DBD fused PPARgamma LBD expressed in reporter cells measured after 24 hrs by luciferase reporter gene assay; format: cell-based
T2 sequence (P37231 whole entry): T1 sequence (whole entry)

[9] = system: Mus musculus; assay: Antihyperglycemic activity in established high fat diet-induced obese mouse assessed as reduction in blood glucose level at 10 mg/kg, iv administered once daily for 14 days measured at 1 hr post dose on day 7 and 14 during compound dosing in presence of glimepride; format: functional, organism-based
[10] = system: Mus musculus; assay: Antihyperglycemic activity in established high fat diet-induced obese mouse assessed as reduction in blood glucose level at 10 mg/kg, iv administered once daily for 14 days measured at 1 hr post dose on day 7 and 14 during compound dosing relative to rosiglitazone; format: functional

Free fatty acid receptor 1, sequence (O14842 whole entry): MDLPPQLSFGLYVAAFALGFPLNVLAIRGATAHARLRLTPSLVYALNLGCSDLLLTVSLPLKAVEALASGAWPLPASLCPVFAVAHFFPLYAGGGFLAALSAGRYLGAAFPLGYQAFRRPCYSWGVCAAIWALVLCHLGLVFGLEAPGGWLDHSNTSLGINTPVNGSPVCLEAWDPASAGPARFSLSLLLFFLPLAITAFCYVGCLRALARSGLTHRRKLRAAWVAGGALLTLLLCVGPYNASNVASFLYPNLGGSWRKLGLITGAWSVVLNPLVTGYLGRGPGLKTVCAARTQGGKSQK

| fold change (FC) [1] | pEC50 [3] | Structure (SMILES) | Activity [2] | EC50 [3] | also measured |
| --- | --- | --- | --- | --- | --- |
| 4 | 4.67 | O=C1NC(=O)C(Cc2ccc(OCCOC(c3ccccc3)c3ccccc3)cc2)S1 (stereo not drawn) | 9.3% |  | Activity [4]: Active |
|  |  | O=C1NC(=O)C(Cc2ccc(OCCn3c(-c4ccccc4)cc4ccccc43)cc2)S1 (stereo not drawn) | 34.9% | Not Active |  |
|  |  | O=C1NC(=O)C(Cc2ccc(OCCOC(c3ccccc3)c3ccc(Cl)cc3)cc2)S1 (stereo not drawn) | 10.7% | Not Active |  |
|  | 6.62 | CCCCC/C=C/C/C=C/C/C=C/CCCCC(=O)O |  |  |  |
|  |  | O=C1NC(=O)C(Cc2ccc(OCCOc3cccc4ccccc34)cc2)S1 (stereo not drawn) | 13.3% | Not Active |  |
| > 0.01 | 4.95 | O=C1NC(=O)C(Cc2ccc(OCCOC(c3ccccc3)c3ccc(C(F)(F)F)cc3)cc2)S1 (stereo not drawn) | inactive |  |  |
|  |  | Cc1ccccc1C(OCCOc1ccc(CC2SC(=O)NC2=O)cc1)c1ccccc1 (stereo not drawn) | 4.4% | Not Active |  |
|  |  | CCC1=C(C)CN(C(=O)NCCc2ccc(S(=O)(=O)NC(=O)N[C@H]3CC[C@H](C)CC3)cc2)C1=O |  |  | Activity [6]: Active; Activity [7]: Active |
| 29.7 | 5.37 | O=C1NC(=O)C(Cc2ccc(OCCn3cnc4ccccc43)cc2)S1 (stereo not drawn) | 69.8% |  | pEC50 [8]: 5.63 |
|  |  | O=C1NC(=O)C(Cc2ccc(OCCn3c(CO)nc4ccccc43)cc2)S1 (stereo not drawn) | 39.5% | Not Active |  |
| 43.1 |  | CN(CCOc1ccc(CC2SC(=O)NC2=O)cc1)c1ccccn1 (stereo not drawn) |  |  | Activity [6]: Active; Activity [9]: Active |
| 56.1 | 5.66 | O=C1NC(=O)C(Cc2ccc(OCCn3ccc4ccccc43)cc2)S1 (stereo not drawn) | 130% |  | pEC50 [8]: 5.40; Activity [4]: Active |

| Structure (SMILES) | fold change (FC) [1] | pEC50 [3] | Activity [2] | EC50 [3] | also measured |
| --- | --- | --- | --- | --- | --- |
| COc1ccc(C(OCCOc2ccc(CC3SC(=O)NC3=O)cc2)c2ccccc2)cc1 (stereo not drawn) |  | 4.75 | 12.1% |  | Activity [4]: Active; fold change (FC) [5]: 5.5 |
| O=C1NC(=O)C(Cc2ccc(OCCn3ccc4ccc(Cl)cc43)cc2)S1 (stereo not drawn) |  | 5.30 | 83.7% |  | pEC50 [8]: 5.35; Activity [4]: Active; fold change (FC) [10]: 6; fold change (FC) [5]: 3.5; Activity [6]: Active |

From ChEMBL document CHEMBL4118117, “Synthesis, biological evaluation, and molecular docking investigation of benzhydrol- and indole-based dual PPAR-γ/FFAR1 agonists” (Bioorg Med Chem Lett, 2018)
